# Measurements as given in PMC10537618, “Effect of Betanin, the Major Pigment of Red Beetroot (Beta vulgaris L.), on the Activity of Recombinant Human Cytochrome P450 Enzymes” (Pharmaceuticals, 2023).
# How the values were obtained:
# CYP2B6 = assay: P450-Glo luminescence-based CYP induction assay in HepG2 cells, CYP2B6 (Luciferin-2B6); type: in vitro ADME, human; set-up: induction of CYP2B6 activity in HepG2 cells by positive control inducer: dose or concentration left out as unconfirmed
# Method: CYP enzyme activity was measured using P50-Glo assay kits. Omeprazole (OPZ) 1 mM and rifampicin (RFC) 1 and 10 mM were used as positive controls for the luminescence-based assay. The data are expressed as a percentage of the control (DMSO 0.5%). Results are mean ± SEM of triplicate independent experiments.
# HepG2 cells were seeded at a concentration of 3 × 10^4 cells per well for CYP1A2 and 1 × 10^5 cells per well for CYP2B6 and CYP2C9 in opaque white 96-well plates. After 24 h of incubation, the cells were combined with 0.5% DMSO (vehicle control), 1 mM omeprazole, 10 mM rifampicin, or 0.1–100 μM betanin for 48 h. The supernatant was then switched to fresh medium containing the same concentration of the compound and incubated for an additional 24 h. To measure luminescence, the culture medium was replaced with fresh medium containing the luciferin substrate and incubated at 37 °C in a 5% CO₂ incubator (Table 2). Next, 50 µL of each well was transferred to a well of a fresh 96-well opaque white cell culture plate and mixed with 50 µL of CYP Luciferin Detection Reagent at room temperature to initiate the enzymatic reaction. After incubation for 20 min, luminescence was measured using a SpectraMax M3 Multi-Mode Microplate Reader (Bio-Rad).
# HepG2 cells = assay: MTT cell viability assay; type: cell-based, human; details: 0.1–100 μM, 48 h
# Method: Human hepatocellular carcinoma (HepG2) cells were cultured in Minimum Essential Medium (MEM) supplemented with 10% fetal bovine serum and 1% penicillin–streptomycin. HepG2 cells were maintained at 37 °C in a humidified environment with a 5% CO₂ atmosphere. The culture medium was replaced every day before measuring CYP activity. HepG2 cells were grown in opaque 96-well plates at a density of 1 × 10^4 cells/well. After 24 h, the cells were added with the desired concentration of betanin for 48 h. Next, 20 µL of 5 mg/mL MTT solution in PBS was added to each well and incubated for 2 h. After removing the supernatant, 100 µL of DMSO was dispensed into each well and the plate was incubated for 10 min.
# CYP1A2 = assay: P450-Glo luminescence-based CYP induction assay in HepG2 cells, CYP1A2 (Luciferin-1A2); details: betanin 0.1–100 μM, versus control (DMSO 0.5%)
# Excerpt: (§1) Results are mean ± SEM of triplicate independent experiments.
# recombinant CYP1A2 = molecular target: T1, recombinant CYP1A2 (Homo sapiens, UniProt P05177); assay: Vivid fluorescence-based CYP inhibition assay, recombinant CYP1A2 (EOMCC substrate); type: in vitro ADME
# T1 construct: purchased Thermo Fisher Scientific; host or cells: insect cells (microsomes)
# T1 sequence (P05177 2-516 limits assumed): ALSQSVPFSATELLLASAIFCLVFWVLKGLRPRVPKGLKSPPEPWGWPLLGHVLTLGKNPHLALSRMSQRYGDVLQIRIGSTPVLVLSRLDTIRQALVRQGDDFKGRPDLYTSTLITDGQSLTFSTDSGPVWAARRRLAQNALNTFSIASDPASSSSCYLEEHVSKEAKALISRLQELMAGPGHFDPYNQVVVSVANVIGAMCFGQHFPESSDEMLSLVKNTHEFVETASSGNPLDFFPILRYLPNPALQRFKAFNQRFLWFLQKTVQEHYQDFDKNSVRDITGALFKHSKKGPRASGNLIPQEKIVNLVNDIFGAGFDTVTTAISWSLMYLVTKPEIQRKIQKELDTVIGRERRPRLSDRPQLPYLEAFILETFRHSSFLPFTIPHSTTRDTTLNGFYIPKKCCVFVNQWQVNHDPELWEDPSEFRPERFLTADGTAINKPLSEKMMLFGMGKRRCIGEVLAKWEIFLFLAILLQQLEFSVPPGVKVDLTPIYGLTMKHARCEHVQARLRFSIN
# Method: (§2) We measured the activity of six representative CYPs using Vivid CYP screening kits. CYP activity was evaluated using recombinant CYPs and specific fluorescent substrates 7-ethoxymethoxy-3-cyanocoumarin (EOMCC) and 7-benzyloxymethyloxy-3-cyanocoumarin (BOMCC).
# (§3) Raw fluorescence data were normalized against control activity values of 0% and 100%. Control 0% activity values were obtained from samples consisting of 0.5% DMSO and the enzyme solvent buffer without the enzyme. Maximum 100% activity values were expressed as a reaction with only enzymes and 0.5% DMSO, with no other drugs. Furafylline (FRL) 100 μM, bupropion (BPP) 50 μM, omeprazole (OPZ) 50 μM, fluvoxamine (FVX) 100 μM, quinidine (QND) 50 μM, and ketoconazole (KCZ) 1 μM were used as positive controls for the fluorescence-based assay. […] Raw data were normalized using the software GraphPad Prism 8.02. The data represent the mean ± SEM of triplicate independent experiments.
# (§4) Fluorescence-based assays were performed according to the manufacturer’s instructions. […] The plates were immediately measured in the kinetic mode using a SpectraMax M3 Multi-Mode Microplate Reader (Bio-Rad, Hercules, CA, USA). […] The signals were measured using a SpectraMax M3 Multi-Mode Microplate Reader (Bio-Rad). Data fitting generated a sigmoidal dose–response curve with values calculated using Microsoft Excel 2016 (Microsoft Corporation, Redmond, WA, USA).
# recombinant CYP2B6 = molecular target: T2, recombinant CYP2B6 (Homo sapiens, UniProt P20813); assay: Vivid fluorescence-based CYP inhibition assay, recombinant CYP2B6 (BOMCC substrate); type: in vitro ADME
# T2 construct: purchased Thermo Fisher Scientific; host or cells: insect cells (microsomes)
# T2 sequence (P20813 1-491): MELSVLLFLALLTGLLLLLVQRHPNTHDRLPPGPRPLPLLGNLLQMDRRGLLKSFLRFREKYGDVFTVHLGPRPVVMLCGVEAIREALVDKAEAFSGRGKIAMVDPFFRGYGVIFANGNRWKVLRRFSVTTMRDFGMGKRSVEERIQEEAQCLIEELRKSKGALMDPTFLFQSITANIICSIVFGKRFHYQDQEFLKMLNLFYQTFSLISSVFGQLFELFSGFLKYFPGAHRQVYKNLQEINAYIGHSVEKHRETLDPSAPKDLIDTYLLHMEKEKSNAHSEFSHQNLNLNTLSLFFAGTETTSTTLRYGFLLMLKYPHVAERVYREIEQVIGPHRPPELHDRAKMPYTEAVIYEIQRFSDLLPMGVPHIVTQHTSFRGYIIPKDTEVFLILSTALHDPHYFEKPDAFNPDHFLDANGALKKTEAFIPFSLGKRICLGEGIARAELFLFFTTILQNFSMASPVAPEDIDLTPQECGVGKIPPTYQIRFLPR
# Method: as §2, §3, §4
# recombinant CYP2C19 = molecular target: T3, recombinant CYP2C19 (Homo sapiens, UniProt P33261); assay: Vivid fluorescence-based CYP inhibition assay, recombinant CYP2C19 (EOMCC substrate); type: in vitro ADME
# T3 construct: purchased Thermo Fisher Scientific; host or cells: insect cells (microsomes)
# T3 sequence (P33261 whole entry): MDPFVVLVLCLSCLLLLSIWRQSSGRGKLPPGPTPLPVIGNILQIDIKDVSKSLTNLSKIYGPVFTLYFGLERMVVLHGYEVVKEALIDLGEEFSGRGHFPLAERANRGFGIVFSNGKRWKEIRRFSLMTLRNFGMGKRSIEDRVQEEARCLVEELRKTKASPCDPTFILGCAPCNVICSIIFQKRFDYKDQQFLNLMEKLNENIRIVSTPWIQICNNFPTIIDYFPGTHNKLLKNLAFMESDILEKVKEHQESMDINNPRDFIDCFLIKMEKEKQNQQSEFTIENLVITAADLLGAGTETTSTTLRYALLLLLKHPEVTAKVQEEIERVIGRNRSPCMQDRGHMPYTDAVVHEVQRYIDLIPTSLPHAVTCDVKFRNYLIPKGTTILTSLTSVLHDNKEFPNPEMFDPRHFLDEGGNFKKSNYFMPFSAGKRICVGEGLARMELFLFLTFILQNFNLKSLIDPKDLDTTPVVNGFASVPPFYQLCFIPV
# Method: as §2, §3, §4
# recombinant CYP3A4 [1] = molecular target: T4, recombinant CYP3A4 (Homo sapiens, UniProt P08684); assay: Vivid fluorescence-based CYP inhibition assay, recombinant CYP3A4 (BOMCC substrate); type: in vitro ADME
# T4 construct: purchased Thermo Fisher Scientific; host or cells: insect cells (microsomes)
# T4 sequence (P08684 2-503 limits assumed): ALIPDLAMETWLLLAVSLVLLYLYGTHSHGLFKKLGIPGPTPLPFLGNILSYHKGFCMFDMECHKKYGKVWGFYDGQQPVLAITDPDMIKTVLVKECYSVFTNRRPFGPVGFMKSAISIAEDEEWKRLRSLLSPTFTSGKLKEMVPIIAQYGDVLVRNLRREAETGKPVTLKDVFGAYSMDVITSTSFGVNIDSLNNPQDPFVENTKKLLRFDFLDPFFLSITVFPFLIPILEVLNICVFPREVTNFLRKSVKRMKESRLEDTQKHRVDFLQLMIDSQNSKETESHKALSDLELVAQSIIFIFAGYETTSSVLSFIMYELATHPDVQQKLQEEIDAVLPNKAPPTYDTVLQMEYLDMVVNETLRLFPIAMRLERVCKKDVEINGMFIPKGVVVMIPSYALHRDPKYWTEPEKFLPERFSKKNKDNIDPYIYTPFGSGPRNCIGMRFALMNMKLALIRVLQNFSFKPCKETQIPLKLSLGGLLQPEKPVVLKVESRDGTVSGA
# Method: as §2, §3
# Fluorescence-based assays were performed according to the manufacturer’s instructions. Control, CYP positive control inhibitor, and betanin (0.1–100 μM) solutions were prepared by diluting the compounds with Vivid CYP Reaction Buffer (Table 1). Next, 40 µL of control, CYP positive control inhibitor, or betanin solution was dispensed into the wells of black 96-well plates. A Master Pre-Mix was prepared by diluting the P450 BAC-ULOSOMES Plus Reagent and Vivid Regeneration System in Vivid CYP Reaction Buffer. The P450 BACULOSOMES Plus Reagents are microsomes made from insect cells that express human cytochrome P450 reductase and CYP450 isozyme. […] The plates were immediately measured in the kinetic mode using a SpectraMax M3 Multi-Mode Microplate Reader (Bio-Rad, Hercules, CA, USA). […] The signals were measured using a SpectraMax M3 Multi-Mode Microplate Reader (Bio-Rad). Data fitting generated a sigmoidal dose–response curve with values calculated using Microsoft Excel 2016 (Microsoft Corporation, Redmond, WA, USA).
# recombinant CYP2C9 = molecular target: T5, recombinant CYP2C9 (Homo sapiens, UniProt P11712); assay: Vivid fluorescence-based CYP inhibition assay, recombinant CYP2C9 (BOMCC substrate); type: in vitro ADME
# T5 construct: purchased; host or cells: insect cells (microsomes)
# T5 sequence (P11712 whole entry): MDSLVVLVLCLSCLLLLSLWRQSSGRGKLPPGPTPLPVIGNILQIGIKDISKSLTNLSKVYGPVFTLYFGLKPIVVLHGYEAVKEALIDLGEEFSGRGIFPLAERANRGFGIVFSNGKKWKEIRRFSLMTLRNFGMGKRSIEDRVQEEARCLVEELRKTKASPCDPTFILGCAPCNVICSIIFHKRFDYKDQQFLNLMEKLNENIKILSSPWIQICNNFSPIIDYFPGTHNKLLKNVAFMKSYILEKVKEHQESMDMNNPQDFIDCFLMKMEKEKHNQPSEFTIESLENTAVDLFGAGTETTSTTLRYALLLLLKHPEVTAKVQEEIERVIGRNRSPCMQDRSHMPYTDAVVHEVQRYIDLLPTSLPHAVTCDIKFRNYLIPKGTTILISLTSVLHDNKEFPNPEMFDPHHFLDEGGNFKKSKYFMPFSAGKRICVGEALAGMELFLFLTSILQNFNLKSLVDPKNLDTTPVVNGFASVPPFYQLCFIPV
# Method: as §2, §3, §4
# recombinant CYP2D6 = molecular target: T6, recombinant CYP2D6 (Homo sapiens, UniProt P10635); assay: Vivid fluorescence-based CYP inhibition assay, recombinant CYP2D6 (EOMCC substrate); type: in vitro ADME
# T6 construct: purchased Thermo Fisher Scientific; host or cells: insect cells (microsomes)
# T6 sequence (P10635 whole entry): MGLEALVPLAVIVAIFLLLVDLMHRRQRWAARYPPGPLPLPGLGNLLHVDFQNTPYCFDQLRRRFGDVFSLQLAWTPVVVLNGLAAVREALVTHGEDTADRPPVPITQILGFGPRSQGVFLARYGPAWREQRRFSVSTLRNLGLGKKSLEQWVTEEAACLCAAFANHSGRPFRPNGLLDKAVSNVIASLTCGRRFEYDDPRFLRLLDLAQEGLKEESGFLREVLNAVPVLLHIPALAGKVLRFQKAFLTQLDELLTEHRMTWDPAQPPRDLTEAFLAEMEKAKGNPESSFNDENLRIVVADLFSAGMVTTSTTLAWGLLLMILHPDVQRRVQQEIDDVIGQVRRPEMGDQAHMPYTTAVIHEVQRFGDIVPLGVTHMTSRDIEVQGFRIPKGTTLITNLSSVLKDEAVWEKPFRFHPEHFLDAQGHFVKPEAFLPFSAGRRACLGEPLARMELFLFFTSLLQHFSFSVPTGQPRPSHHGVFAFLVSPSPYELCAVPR
# Method: as §2, §3, §4
# recombinant CYP3A4 [2] = molecular target: T4, recombinant CYP3A4; assay: CYP3A4 enzyme kinetics, Lineweaver–Burk plot and secondary plot for Ki; type: in vitro ADME
# Method: Next, we measured the kinetics of betanin metabolization by recombinant CYP3A4. Using the Michaelis constant (Km) and Vmax, we generated a Lineweaver–Burk plot. To obtain inhibition constant (Ki) values, various concentrations of BOMCC were incubated in the absence or presence of 3–100 μM betanin.
# Data were obtained from 30 min incubation with BOMCC (1–20 μM) in the absence or presence of betanin (3–100 μM). All data are represented as mean ± SD from at least three independent experiments.
# CYP activity was measured using Vivid CYP screening kits supplied with P450 BACULOSOMES Plus Reagent containing each CYP. The assays were conducted in the absence or presence of betanin and different concentrations of specific substrates. BOMCC was used as a specific substrate for CYP3A4. Lineweaver–Burk plots were generated for the determination of CYP activity in the absence or presence of betanin.
# CYP2C9 = assay: P450-Glo luminescence-based CYP induction assay in HepG2 cells, CYP2C9 (Luciferin-H); type: in vitro ADME, human; details: betanin 0.1–100 μM, versus control (DMSO 0.5%)
# Excerpt: as §1
# [3] = at any of the tested dosages (0.1–100 μM)
# [4] = fluorescence-based, EOMCC substrate, betanin 0.1–100 μM
# [5] = fluorescence-based, BOMCC substrate, betanin 0.1–100 μM
smiles,measurement,setting,value
"CO[C@H]1/C=C/O[C@@]2(C)Oc3c(C)c(O)c4c(O)c(c(/C=N/N5CCN(C)CC5)c(O)c4c3C2=O)NC(=O)/C(C)=C\C=C\[C@H](C)[C@H](O)[C@@H](C)[C@@H](O)[C@@H](C)[C@H](OC(C)=O)[C@@H]1C [rifampin, reference compound]",induction of CYP2B6 activity in HepG2 cells by positive control inducer,CYP2B6; compared to the control group,significantly induced
"O=C(O)C1=C/C(=C/C=[N+]2/c3cc(O)c(OC4OC(CO)[C@@H](O)C(O)C4O)cc3CC2C(=O)[O-])CC(C(=O)O)N1 (stereo in doubt) [betanin, Betanin]",cytotoxicity toward HepG2 cells (MTT),HepG2 cells,no cytotoxicity
same,induction effect on CYP2B6 activity in HepG2 cells,"CYP2B6; betanin 0.1–100 μM, versus control (DMSO 0.5%)",did not show any induction effect
same,induction effect on CYP1A2 activity in HepG2 cells,CYP1A2,did not show any induction effect
same,inhibitory effect on recombinant CYP1A2,recombinant CYP1A2; [3],≤ 30%
same,IC50,recombinant CYP1A2; [4],> 100 µM
same,inhibitory effect on recombinant CYP2B6,recombinant CYP2B6; [3],≤ 30%
same,IC50,recombinant CYP2B6; [5],> 100 µM
same,inhibitory effect on recombinant CYP2C19,recombinant CYP2C19; [3],≤ 30%
same,IC50,recombinant CYP2C19; [4],> 100 µM
same,inhibition of recombinant CYP3A4,recombinant CYP3A4 [1]; 30 μM,58%
same,inhibition of recombinant CYP3A4,recombinant CYP3A4 [1]; 100 μM,87%
same,IC50,"recombinant CYP3A4 [1]; fluorescence-based, BOMCC substrate, betanin 0.1–100 μM, 95% CI 19.09–23.06 μM",21 µM
same,inhibitory effect on recombinant CYP2C9,recombinant CYP2C9; [3],≤ 30%
same,IC50,recombinant CYP2C9; [5],> 100 µM
same,inhibitory effect on recombinant CYP2D6,recombinant CYP2D6; 100 μM,33%
same,IC50,recombinant CYP2D6; [4],> 100 µM
same,Ki,"recombinant CYP3A4 [2]; 1–20 μM BOMCC, 3, 10, 30 and 100 μM betanin, 30 min incubation, read-out: Ki (inhibition constant) for CYP3A4",19.5 µM
same,mode of inhibition of CYP3A4,recombinant CYP3A4 [2]; Lineweaver–Burk and secondary plots,competitive inhibitor
same,induction effect on CYP2C9 activity in HepG2 cells,CYP2C9,did not show any induction effect
